Where two headings read alike, the source gives them in different places.
What was measured:
[1] = test system: P. falciparum DD2; set-up: method as in ChEMBL; settings: ref ChEMBL; cited from earlier work
[2] = test system: P. falciparum 3D7 cells; settings: P. falciparum 3D7; ref ChEMBL; cited from earlier work
[3] = target: T1, Plasmodium falciparum protein kinase 6 (PK6) (Plasmodium falciparum, UniProt Q8IDW1); assay: biochemical
T1 construct: 6-Histidine (N); made in house
T1 sequence (Q8IDW1 1-305): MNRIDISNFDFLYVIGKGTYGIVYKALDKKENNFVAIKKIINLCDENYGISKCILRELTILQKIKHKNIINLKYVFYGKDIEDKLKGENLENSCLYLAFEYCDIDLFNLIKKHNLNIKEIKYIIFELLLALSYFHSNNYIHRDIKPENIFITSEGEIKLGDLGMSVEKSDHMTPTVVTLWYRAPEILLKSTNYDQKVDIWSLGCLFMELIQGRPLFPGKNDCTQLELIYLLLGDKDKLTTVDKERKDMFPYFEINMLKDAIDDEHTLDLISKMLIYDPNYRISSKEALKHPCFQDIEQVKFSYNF

[4] = test system: HepG2 cells; settings: HepG2 cells; ref ChEMBL; cited from earlier work
[5] = test system: 3D7 PFLDH; set-up: method as in ChEMBL; settings: ref ChEMBL; cited from earlier work
[6] = target: T2, Plasmodium falciparum calcium-dependent protein kinase 1 (CDPK1) (Plasmodium falciparum, UniProt P62344); assay: CDPK1 Kinase-Glo ATP-consumption screen and dose-response; type: biochemical
T2 construct: 6-Histidine (N); made in house
T2 sequence (P62344 whole entry): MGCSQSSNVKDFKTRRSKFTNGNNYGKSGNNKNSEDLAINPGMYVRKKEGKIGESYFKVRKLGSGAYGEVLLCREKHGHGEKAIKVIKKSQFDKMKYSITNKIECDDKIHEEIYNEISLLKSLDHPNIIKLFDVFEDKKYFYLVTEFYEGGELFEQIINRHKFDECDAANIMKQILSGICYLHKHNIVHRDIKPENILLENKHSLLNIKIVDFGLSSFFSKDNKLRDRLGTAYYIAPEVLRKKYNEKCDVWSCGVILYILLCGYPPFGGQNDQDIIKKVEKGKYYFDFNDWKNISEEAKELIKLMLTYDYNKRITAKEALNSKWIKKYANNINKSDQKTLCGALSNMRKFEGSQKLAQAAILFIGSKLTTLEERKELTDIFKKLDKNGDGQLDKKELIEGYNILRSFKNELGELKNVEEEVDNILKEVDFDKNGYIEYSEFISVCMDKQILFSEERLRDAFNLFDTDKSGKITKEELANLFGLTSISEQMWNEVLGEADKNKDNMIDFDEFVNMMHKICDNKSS
Summary of the method: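 ATP consumption by recombinant P. falciparum CDPK4 or CDPK1 measured as residual ATP by Kinase-Glo luminescence, with 40 μM Syntide-2 substrate and 90 min incubation stopped with 5 mM EGTA. Single-point screen at 1 μM final, followed by dose-response; no-substrate wells as negative control.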

[7] = hits below 1 uM, read-out: PK6 IC50
[8] = hits below 1 uM, read-out: CDPK1 IC50

| Structure (SMILES) | IC50 [3, 7] | IC50 [6, 8] | PCT_INHB_DD2 [1] | PCT_IHB_3D7 [2] | pXC50_3D7 [2] | PCT_INHIB_HEPG2 [4] | PCT_INHIB_3D7_PFLDH [5] | IC50 [6] | IC50 [3] |
| --- | --- | --- | --- | --- | --- | --- | --- | --- | --- |
| CN1CCC(NC(=O)c2cccc(Nc3cc(Nc4cccc(Br)c4)ncn3)c2)CC1 [TCMDC-124773] | 0.602 µM | – | 6 | 94 | 5.997 | 25 | 1 | – | – |
| Cc1cc(Nc2nc(Nc3cccc(Cl)c3)nc3ccccc23)n[nH]1 [TCMDC-134695] | 0.151 µM | – | 95 | 100 | 6.542 | 9 | 0 | – | – |
| C(=N\Nc1nccc2sc(-c3ccccc3)cc12)/c1cccnc1 [TCMDC-135190] | 0.278 µM | – | 10 | 97 | 6.086 | 0 | 8 | – | – |
| COc1ccc(Nc2ncc3c(-c4cccc(NC(=O)Cc5ccc(O)cc5)c4)c[nH]c3n2)cc1OC [TCMDC-135248] | 0.445 µM | 0.098 µM | 99 | 100 | 6.244 | 48 | 0 | – | – |
| N=C(N)c1ccc(Nc2nccc(Nc3nc(-c4ccccc4)cs3)n2)cc1.O=C(O)C(F)(F)F [TCMDC-136090] | 0.413 µM | – | 75 | 96 | 6.122 | 13 | 0 | – | – |
| Cl.N=C(N)c1ccc(Nc2nc(Nc3ccc(-c4ccccc4)cc3)ncc2[N+](=O)[O-])cc1 [TCMDC-136145] | 0.164 µM | – | 35 | 99 | 6.095 | 11 | 0 | – | – |
| O=C(Cc1ccc(Nc2nccc(Nc3cccc4[nH]ncc34)n2)cc1)Nc1ccc(C(F)(F)F)cc1 [TCMDC-136243] | 0.167 µM | – | 69 | 100 | 6.052 | 12 | 0 | – | – |
| Cc1ccc(S(=O)(=O)Nc2ccc(Nc3nccc(Nc4cccc5[nH]ncc45)n3)cc2)cc1 [TCMDC-136297] | 0.823 µM | – | 5 | 90 | 6.019 | 57 | 6 | – | – |
| C#CCNC(=O)c1ccc(-c2ccnc(Nc3cccc(CCCN4CCOCC4)c3)n2)s1 [TCMDC-136764] | 0.181 µM | – | 45 | 82 | 5.998 | 54 | 0 | – | – |
| CCN(CC)CCOc1ccc(Nc2ncc3cc(-c4c(Cl)cccc4Cl)c(=O)n(C)c3n2)cc1 [TCMDC-140940] | – | – | 91 | 90 | 5.929 | 72 | 1 | 0.78 µM | 0.35 µM |
| Cn1cnc2c(Nc3ccncc3)nc(-c3ccc4c(c3)OCO4)nc21.O=C(O)C(F)(F)F [TCMDC-141274] | 0.5 µM | – | 2 | 96 | 5.953 | 19 | 0 | – | – |
| Cn1nc(-c2ccc(NC(=O)Nc3ccc4ccccc4c3)c(F)c2)c2cnc(NCCN3CCOCC3)nc21.O=C(O)C(F)(F)F [TCMDC-141561] | 0.86 µM | – | 3 | 93 | 5.992 | 62 | 1 | – | – |
| Cc1ccc(Nc2nc3cc(Nc4ccnc(Nc5cccc(CS(C)(=O)=O)c5)n4)ccc3o2)cc1.O=C(O)C(F)(F)F [TCMDC-141957] | 0.229 µM | – | 81 | 100 | 6.0348 | 55 | 4 | – | – |

The next lines start with results.

| IC50 [3, 7] | IC50 [6, 8] | Structure (SMILES) | PCT_INHB_DD2 [1] | PCT_IHB_3D7 [2] | pXC50_3D7 [2] | PCT_INHIB_HEPG2 [4] | PCT_INHIB_3D7_PFLDH [5] | IC50 [6] | IC50 [3] |
| --- | --- | --- | --- | --- | --- | --- | --- | --- | --- |
| 0.145 µM | – | Cn1c(=O)c(-c2c(Cl)cccc2Cl)cc2cnc(Nc3ccc(N4CCOCC4)cc3)nc21 [TCMDC-137156] | 97 | 98 | 6.794 | 64 | 4 | – | – |
| 0.122 µM | 0.416 µM | Cc1ccc(Nc2ccnc(Nc3ccc4c(c3)CS(=O)(=O)C4)n2)cc1O.Cl [TCMDC-138484] | 76 | 100 | 6.14 | 82 | 5 | – | – |
| 0.201 µM | – | N#Cc1cnc(Nc2ccc(Oc3ccccc3)cc2)nc1Nc1cccc(S(N)(=O)=O)c1 [TCMDC-138613] | 86 | 96 | 6.256 | 74 | 3 | – | – |
| 0.11 µM | – | CCN(CC)CCNC(=O)c1ccc(Nc2ncc([N+](=O)[O-])c(Nc3ccccc3OC)n2)cc1.Cl [TCMDC-138727] | 58 | 97 | 6.841 | 59 | 0 | – | – |
| 0.058 µM | – | COc1cccc(-n2ncc3c(N/N=C/c4ccc(CN(C)CCN(C)C)cc4)ncnc32)c1 [TCMDC-138728] | 91 | 100 | 6.049 | 29 | 0 | – | – |
| 0.464 µM | – | CN(c1ccc2c(c1)nc(NCc1ccccc1)n2C)c1ccnc(Nc2ccc(CS(C)(=O)=O)cc2)n1.Cl [TCMDC-138740] | 69 | 94 | 6.075 | 61 | 4 | – | – |
| 0.265 µM | 0.11 µM | O=CO.O=S1(=O)NCc2ccc(Nc3nccc(Nc4ccc5c(cnn5Cc5ccccc5)c4)n3)cc21 [TCMDC-138840] | 33 | 94 | 6.125 | 0 | 0 | – | – |
| 0.335 µM | 0.165 µM | Cl.Nc1ncnc2occ(-c3ccc(NC(=O)Nc4cc(C(F)(F)F)ccc4F)cc3)c12 [TCMDC-141371] | 99 | 99 | 5.765 | 57 | 0 | – | – |

— publication PMC4774911, “Biochemical Screening of Five Protein Kinases from Plasmodium falciparum against 14,000 Cell-Active Compounds” (PLoS ONE, 2016)
